In patent US7776868B2, “Substituted bicyclic and tricyclic thieno[2,3-d]pyrimidines as A2A adenosine receptor antagonists” (Gilead Palo Alto, Inc., priority 2006, dated 2010) one finds Ki data, which are given here for 18 molecules.

SMILES strings stand for the structures.

The test concerns the target A2A adenosine receptor (UniProt P29274). Nature of the test: A2A radioligand competitive binding assay (3H-MSX-2 displacement). On the set-up: species or system human. The settings on record: competitive binding vs 2 nM 3H-MSX-2, 15 ug A2A membrane, 23° C., 2 hours. An excerpt:
A tritiated adenosine A2A antagonist, 3-(3-hydroxypropyl)-7-methyl-8-(m-methoxystyryl)-1-propargylxanthine, (3H-MSX-2, specific activity: 80 Ci/mmol), was purchased from American Radiolabeled Chemicals, Inc (St. Louis, Mo.). A tritiated adenosine A1 antagonist, 1,3-Dipropyl-8-cyclopentylxanthine ([^3H]DPCPX, specific activity: 120 Ci/mmol) was purchased from Perkin Elmer (Boston, Mass.). A tritiated adenosine A2B antagonist, 4-(2-[7-amino-2-(2-furyl) [1,2,4]triazolo[2,3-a][1,3,5]triazin-5-ylamino]ethyl)phenol ([^3H]ZM241385 specific activity: 27.4 Ci/mmol) was purchased from American Radiolabeled Chemicals, Inc (St. Louis, Mo.). Adenosine Deaminase (ADA) was purchased from Roche Molecular Biochemicals (Nutley, N.J.). GTP was purchased from Sigma. Concentrated stock solution (10 mM) of compounds was dissolved in dimethylsulfoxide (DMSO), stored at −20° C., and diluted in Tris-EDTA buffer (50 mM Tris and 1 mM EDTA, 10 mM MgCl2, pH 7.4) for use in experiments. The final content of dimethylsulfoxide in Tris-EDTA buffer during experiments was not more than 1%. Male Sprague Dawley rats, weighted 250-400 g, 8-10 weeks old, were purchased from Charles River Labs (Wilmington, Mass.).
HEK293 (Human Embryonic Kidney 293) cells stably expressing human A2A adenosine receptor or human A2B adenosine receptor were maintained in DMEM supplemented with 10% fetal bovine serum, 2 mM L-glutamine, 100 IU/ml penicillin, 50 μg/ml streptomycin and 2 μg/ml puromycin. CHO (Chinese Hamster Ovary) cells stably expressing human A1 adenosine receptor or human A3 adenosine receptor were maintained in F12K medium supplemented with 10% fetal bovine serum, 2 mM L-glutamine, 100 IU penicillin, 50 μg/ml streptomycin and 8 μg/ml puromycin. PC12 (rat pheochromocytoma) cells were cultured in F12K medium supplemented with 10% horse serum and 2.5% fetal bovine serum, 2 mM L-glutamine, 100 IU/ml penicillin, and 50 μg/ml streptomycin. All cells were maintained at 37° C. in a humidified 5% CO2/95% air incubator and recultivated 2 times per week.
Cultured cells in 150 mm^2 dishes were washed once with PBS, detached by scrapping, collected with buffer A (10 mM HEPES, 10 mM EDTA, pH 7.4) containing protease inhibitor cocktail. Cells were then homogenized by a handheld homogenizer at a speed of 4.5 for 1 min. The homogenate was centrifuged by a Beckman ultracentrifuge at a speed of 29,000×g for 15 min. The pellets were resuspended in buffer HE (10 mM HEPES, 1 mM EDTA, pH 7.4, with protease inhibitor cocktail), centrifuged again at 29,000×g for 15 min. The crude membrane was resuspended using buffer HE, and protein concentration was measured by the method of Lowery with BSA as standard. Similar procedures were used for membrane preparation for fresh rat tissues. All experimental procedures were done at 4° C. Membranes were aliquot and kept at −80° C.
The binding assays utilized 15 ug of A2A membrane (human recombinant A2A membrane, rat striatal membrane, or PC 12 cell membrane) that had been treated with adenosine deaminase and 50 mM Tris-EDTA buffer (pH=7.4) followed by mixing 2 μL of serially diluted DMSO stock solution of the compounds of this invention at concentrations ranging from 10 μM to 0.1 nM or the control received 2 μL of DMSO alone, then the tritiated antagonist 3-(3-hydroxypropyl)-7-methyl-8-(m-methoxystyryl)-1-propargylxanthine (3H-MSX-2) in Tris-EDTA buffer (50 mM Tris, 1 mM EDTA, 10 mM MgCl2, pH of 7.4) was added to achieve a final concentration of 2 nM. After incubation at 23° C. for 2 hours, the solutions were filtered using a membrane harvester with multiple washing of the membranes (3×). The filter plates were counted in scintillation cocktail affording the amount of displacement ^3H-MSX-2 by the competitive binding compositions of this invention. Radioligand binding data was analyzed using GraphPad Prism version 4.0 (San Diego, Calif.). […]
As to `CCn1c(=O)[nH]c2sc(/C=C/c3ccc(F)cc3)c(C)c2c1=O` [IV, 6-[(1E)-2-(4-fluorophenyl)vinyl]-3-ethyl-5-methyl-1,3-dihydrothiopheno[2,3-d]pyrimidine-2,4-dione], the Ki was 189 nM.

For the molecule `CCn1c(=O)[nH]c2sc(/C=C/c3ccc(OC)c(OC)c3)c(C)c2c1=O` [X, 6-[(1E)-2-(3,4-dimethoxyphenyl)vinyl]-3-ethyl-5-methyl-1,3-dihydrothiopheno[2,3-d]pyrimidine-2,4-dione], the Ki amounted to 75 nM.

`CCn1c(=O)[nH]c2sc(/C=C/c3cccnc3)c(C)c2c1=O` [XII, 6-((1E)-2-(3-pyridyl)vinyl)-3-ethyl-5-methyl-1,3-dihydrothiopheno[2,3-d]pyrimidine-2,4-dione] gave a Ki of 33 nM.

The molecule `CCn1c(=O)[nH]c2sc(/C=C/c3cccc(F)c3)c(C)c2c1=O` [VI, 6-[(1E)-2-(3-fluorophenyl)vinyl]-3-ethyl-5-methyl-1,3-dihydrothiopheno[2,3-d]pyrimidine-2,4-dione] displayed a Ki of 242 nM. Compared with the last molecule, the Ki is about 7.3-fold higher.

`COc1ccc(/C=C/c2sc3[nH]c(=O)n(CC(C)C)c(=O)c3c2C)cc1OC` [XI, 6-[(1E)-2-(3,4-dimethoxyphenyl)vinyl]-5-methyl-3-(2-methylpropyl)-1,3-dihydrothiopheno[2,3-d]pyrimidine-2,4-dione]: the affinity corresponds to a Ki of 277 nM.

On to `CCn1c(=O)c2c(C)c(/C=C/c3ccc(OC)c(OC)c3)sc2n(COCc2ccccc2)c1=O` [II, 6-[(1E)-2-(3,4-dimethoxyphenyl)vinyl]-3-ethyl-5-methyl-1-[(phenylmethoxy)methyl]-1,3-dihydrothiopheno[2,3-d]pyrimidine-2,4-dione], for which the Ki was 866 nM.

Take `CCn1c(=O)[nH]c2sc(/C=C/c3ccccc3OC)c(C)c2c1=O` [XVII, 6-[(1E)-2-(2-methoxyphenyl)vinyl]-3-ethyl-5-methyl-1,3-dihydrothiopheno[2,3-d]pyrimidine-2,4-dione]: the Ki was 38 nM. Against the preceding molecule, the Ki is about 23-fold lower.

On to `CCn1c(=O)[nH]c2sc(/C=C/c3ccccc3)c(C)c2c1=O` [III, 6-((1E)-2-phenylvinyl)-3-ethyl-5-methyl-1,3-dihydrothiopheno[2,3-d]pyrimidine-2,4-dione], for which the affinity, expressed as Ki, was 171 nM.

In turn, `CCn1c(=O)[nH]c2sc(/C=C/c3ccccc3F)c(C)c2c1=O` [XV, 6-[(1E)-2-(2-fluorophenyl)vinyl]-3-ethyl-5-methyl-1,3-dihydrothiopheno[2,3-d]pyrimidine-2,4-dione] came in with a Ki of 170 nM.

`CCn1c(=O)[nH]c2sc(/C=C/c3ccc(Cl)cc3)c(C)c2c1=O` [VII, 6-[(1E)-2-(4-chlorophenyl)vinyl]-3-ethyl-5-methyl-1,3-dihydrothiopheno[2,3-d]pyrimidine-2,4-dione] registered a Ki of 320 nM.

For `C#CCn1c(=O)c2c(C)c(/C=C/c3ccccc3)sc2n(C)c1=O` [V, 6-((1E)-2-phenylvinyl)-1,5-dimethyl-3-prop-2-ynyl-1,3-dihydrothiopheno[2,3-d]pyrimidine-2,4-dione], the Ki worked out at 390 nM.

In the case of `CCn1c(=O)[nH]c2sc(/C=C/c3cc(OC)cc(OC)c3)c(C)c2c1=O` [XVIII, 6-[(1E)-2-(3,5-dimethoxyphenyl)vinyl]-3-ethyl-5-methyl-1,3-dihydrothiopheno[2,3-d]pyrimidine-2,4-dione], affinity was put at a Ki of 96 nM.

`CCn1c(=O)c2c(C)c(/C=C/c3ccc(OC)c(OC)c3)sc2n(C)c1=O` [I, 6-[(1E)-2-(3,4-dimethoxyphenyl)vinyl]-3-ethyl-1,5-dimethyl-1,3-dihydrothiopheno[2,3-d]pyrimidine-2,4-dione] showed a Ki of 220 nM.

For the molecule `CCn1c(=O)[nH]c2sc(/C=C/c3ccc(C)cc3)c(C)c2c1=O` [XIII, 6-[(1E)-2-(4-methylphenyl)vinyl]-3-ethyl-5-methyl-1,3-dihydrothiopheno[2,3-d]pyrimidine-2,4-dione], the Ki was 182 nM. This Ki and that of the molecule before are within 1.5-fold of each other.

Consider `CCn1c(=O)[nH]c2sc(/C=C/c3ccc(-c4ccccc4)cc3)c(C)c2c1=O` [VIII, 6-[(1E)-2-(4-phenylphenyl)vinyl]-3-ethyl-5-methyl-1,3-dihydrothiopheno[2,3-d]pyrimidine-2,4-dione], for which the Ki was determined as 776 nM. This Ki is about 4.3-fold higher than that of the molecule before.

On to `CCn1c(=O)[nH]c2sc(/C=C/c3cccc(OC)c3)c(C)c2c1=O` [XVI, 6-[(1E)-2-(3-methoxyphenyl)vinyl]-3-ethyl-5-methyl-1,3-dihydrothiopheno[2,3-d]pyrimidine-2,4-dione], for which the affinity, expressed as Ki, was 104 nM.

`CCn1c(=O)[nH]c2sc(/C=C/c3ccc(C(F)(F)F)cc3)c(C)c2c1=O` [IX, 6-{(1E)-2-[4-(trifluoromethyl)phenyl]vinyl}-3-ethyl-5-methyl-1,3-dihydrothiopheno[2,3-d]pyrimidine-2,4-dione] registered a Ki of 674 nM.

The molecule `CCn1c(=O)[nH]c2sc(/C=C/c3ccc(OC)cc3)c(C)c2c1=O` [XIV, 6-[(1E)-2-(4-methoxyphenyl)vinyl]-3-ethyl-5-methyl-1,3-dihydrothiopheno[2,3-d]pyrimidine-2,4-dione] gave a Ki of 119 nM.

A word on the Ki: it is the equilibrium dissociation constant of an inhibitor or competing ligand from its target.
